{
  "source": "paper PMC11864979",
  "about": "“First-in-class ultralong-target-residence-time p38α inhibitors as a mitosis-targeted therapy for colorectal cancer” (Nature Cancer, 2025)",
  "assay_in_all_cases": "selectivity profiling in a panel of 340 wild-type kinases (Reaction Biology Europe)",
  "assay_type_in_all_cases": "binding",
  "key": {"[1]": {"target": "T1, 340 wild-type kinases (Homo sapiens, UniProt O14920)", "T1 construct": "purchased Reaction Biology Europe", "T1 sequence (O14920 1-756)": "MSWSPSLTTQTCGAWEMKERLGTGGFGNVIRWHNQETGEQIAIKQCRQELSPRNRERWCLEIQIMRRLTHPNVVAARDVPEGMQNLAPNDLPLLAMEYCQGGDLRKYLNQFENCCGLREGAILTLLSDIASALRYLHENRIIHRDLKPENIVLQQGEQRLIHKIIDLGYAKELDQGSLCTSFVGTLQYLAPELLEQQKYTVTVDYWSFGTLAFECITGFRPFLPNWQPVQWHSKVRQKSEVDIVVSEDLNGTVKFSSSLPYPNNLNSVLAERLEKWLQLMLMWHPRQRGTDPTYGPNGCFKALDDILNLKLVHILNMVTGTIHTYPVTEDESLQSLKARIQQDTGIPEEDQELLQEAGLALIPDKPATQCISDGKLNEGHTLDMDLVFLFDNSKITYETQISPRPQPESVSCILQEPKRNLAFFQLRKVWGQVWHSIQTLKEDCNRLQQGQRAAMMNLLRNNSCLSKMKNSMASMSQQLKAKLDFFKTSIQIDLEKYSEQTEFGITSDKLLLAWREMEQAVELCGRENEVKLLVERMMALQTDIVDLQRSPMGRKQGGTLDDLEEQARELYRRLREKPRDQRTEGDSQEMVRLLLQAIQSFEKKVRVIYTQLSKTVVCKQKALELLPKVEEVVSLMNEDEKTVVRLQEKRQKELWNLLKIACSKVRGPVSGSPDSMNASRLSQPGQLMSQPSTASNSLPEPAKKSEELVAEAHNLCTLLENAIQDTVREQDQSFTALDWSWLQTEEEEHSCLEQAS"}, "[2]": {"target": "T2, 340 wild-type kinases (Homo sapiens, UniProt P42680)", "T2 construct": "purchased Reaction Biology Europe", "T2 sequence (P42680 1-631)": "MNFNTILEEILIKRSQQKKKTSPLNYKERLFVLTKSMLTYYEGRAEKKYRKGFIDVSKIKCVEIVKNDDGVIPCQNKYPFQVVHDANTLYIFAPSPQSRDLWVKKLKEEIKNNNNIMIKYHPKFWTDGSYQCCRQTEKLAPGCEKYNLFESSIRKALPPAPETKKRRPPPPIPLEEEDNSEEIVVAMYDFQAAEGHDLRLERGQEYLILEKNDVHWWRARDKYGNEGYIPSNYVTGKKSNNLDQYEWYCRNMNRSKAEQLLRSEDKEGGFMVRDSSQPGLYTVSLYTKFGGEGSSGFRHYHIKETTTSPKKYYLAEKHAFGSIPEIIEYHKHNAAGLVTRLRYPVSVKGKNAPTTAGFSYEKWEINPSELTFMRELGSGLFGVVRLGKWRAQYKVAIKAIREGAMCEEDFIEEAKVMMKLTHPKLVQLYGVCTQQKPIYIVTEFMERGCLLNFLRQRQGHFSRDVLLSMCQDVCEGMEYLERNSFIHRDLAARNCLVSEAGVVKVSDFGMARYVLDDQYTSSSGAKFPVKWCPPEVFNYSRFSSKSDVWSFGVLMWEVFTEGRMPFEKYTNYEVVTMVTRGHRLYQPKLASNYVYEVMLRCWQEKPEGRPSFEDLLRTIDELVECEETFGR"}, "[3]": {"target": "T3, 340 wild-type kinases (Homo sapiens, UniProt P53355)", "T3 construct": "purchased Reaction Biology Europe", "T3 sequence (P53355 whole entry)": "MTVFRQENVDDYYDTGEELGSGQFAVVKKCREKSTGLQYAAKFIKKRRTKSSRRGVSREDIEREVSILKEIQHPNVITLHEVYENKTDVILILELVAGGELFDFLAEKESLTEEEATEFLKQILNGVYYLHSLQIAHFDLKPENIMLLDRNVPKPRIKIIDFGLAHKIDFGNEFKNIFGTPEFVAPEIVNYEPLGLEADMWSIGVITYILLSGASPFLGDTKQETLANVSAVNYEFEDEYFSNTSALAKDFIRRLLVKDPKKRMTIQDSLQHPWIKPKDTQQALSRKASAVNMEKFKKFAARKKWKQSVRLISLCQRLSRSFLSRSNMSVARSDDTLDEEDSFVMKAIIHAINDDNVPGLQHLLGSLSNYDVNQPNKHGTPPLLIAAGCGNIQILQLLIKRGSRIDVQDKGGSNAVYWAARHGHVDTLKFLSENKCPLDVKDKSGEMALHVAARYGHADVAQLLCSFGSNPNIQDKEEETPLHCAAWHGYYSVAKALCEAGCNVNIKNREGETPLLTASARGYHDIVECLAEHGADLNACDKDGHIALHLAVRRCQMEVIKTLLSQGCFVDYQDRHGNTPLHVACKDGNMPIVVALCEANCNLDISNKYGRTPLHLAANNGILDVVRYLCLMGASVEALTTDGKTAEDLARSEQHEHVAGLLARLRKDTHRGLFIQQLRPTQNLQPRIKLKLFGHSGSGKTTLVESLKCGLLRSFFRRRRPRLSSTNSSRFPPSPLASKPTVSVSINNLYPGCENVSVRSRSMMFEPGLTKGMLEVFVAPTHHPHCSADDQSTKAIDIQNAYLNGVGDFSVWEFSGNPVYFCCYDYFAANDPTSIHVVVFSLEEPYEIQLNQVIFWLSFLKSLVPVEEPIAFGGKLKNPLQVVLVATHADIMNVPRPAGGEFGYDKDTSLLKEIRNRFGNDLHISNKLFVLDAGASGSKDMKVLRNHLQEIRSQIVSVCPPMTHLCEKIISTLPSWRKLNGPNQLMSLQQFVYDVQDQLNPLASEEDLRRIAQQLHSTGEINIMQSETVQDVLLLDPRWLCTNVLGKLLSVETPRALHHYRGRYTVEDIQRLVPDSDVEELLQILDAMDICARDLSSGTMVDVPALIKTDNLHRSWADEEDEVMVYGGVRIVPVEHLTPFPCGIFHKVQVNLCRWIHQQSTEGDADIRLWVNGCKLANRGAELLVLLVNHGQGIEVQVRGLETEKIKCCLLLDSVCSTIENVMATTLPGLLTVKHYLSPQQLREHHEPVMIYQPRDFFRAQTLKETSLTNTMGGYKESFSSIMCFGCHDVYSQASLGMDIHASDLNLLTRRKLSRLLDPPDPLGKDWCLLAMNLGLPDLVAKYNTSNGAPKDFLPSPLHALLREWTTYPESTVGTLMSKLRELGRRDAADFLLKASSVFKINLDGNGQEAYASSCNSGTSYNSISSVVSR"}, "[4]": {"target": "T4, 340 wild-type kinases (Homo sapiens, UniProt Q9BZL6)", "T4 construct": "purchased Reaction Biology Europe", "T4 sequence (Q9BZL6 1-878)": "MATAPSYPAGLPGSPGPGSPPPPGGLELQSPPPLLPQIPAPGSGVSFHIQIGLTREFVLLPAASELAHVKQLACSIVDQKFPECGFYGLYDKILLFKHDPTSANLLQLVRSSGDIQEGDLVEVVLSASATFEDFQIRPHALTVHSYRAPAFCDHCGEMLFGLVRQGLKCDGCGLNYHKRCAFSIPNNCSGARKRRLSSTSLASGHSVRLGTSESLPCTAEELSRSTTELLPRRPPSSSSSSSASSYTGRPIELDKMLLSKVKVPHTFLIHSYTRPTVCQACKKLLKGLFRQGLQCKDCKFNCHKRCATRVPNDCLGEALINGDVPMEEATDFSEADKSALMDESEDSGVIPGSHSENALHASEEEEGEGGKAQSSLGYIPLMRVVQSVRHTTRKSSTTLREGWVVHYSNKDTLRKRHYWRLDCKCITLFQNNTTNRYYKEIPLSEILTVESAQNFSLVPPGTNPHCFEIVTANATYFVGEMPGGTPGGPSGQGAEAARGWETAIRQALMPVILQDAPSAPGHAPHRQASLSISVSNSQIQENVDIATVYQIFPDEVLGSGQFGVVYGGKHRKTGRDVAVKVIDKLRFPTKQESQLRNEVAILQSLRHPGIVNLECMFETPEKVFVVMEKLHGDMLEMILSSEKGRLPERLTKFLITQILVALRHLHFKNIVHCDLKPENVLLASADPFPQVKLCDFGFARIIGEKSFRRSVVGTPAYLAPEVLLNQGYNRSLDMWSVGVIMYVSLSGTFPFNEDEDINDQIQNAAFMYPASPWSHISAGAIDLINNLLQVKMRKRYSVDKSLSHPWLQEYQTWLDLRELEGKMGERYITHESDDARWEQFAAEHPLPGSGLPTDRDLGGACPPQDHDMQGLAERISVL"}, "[5]": {"target": "T5, 340 wild-type kinases (Homo sapiens, UniProt O43293)", "T5 construct": "purchased Reaction Biology Europe", "T5 sequence (O43293 whole entry)": "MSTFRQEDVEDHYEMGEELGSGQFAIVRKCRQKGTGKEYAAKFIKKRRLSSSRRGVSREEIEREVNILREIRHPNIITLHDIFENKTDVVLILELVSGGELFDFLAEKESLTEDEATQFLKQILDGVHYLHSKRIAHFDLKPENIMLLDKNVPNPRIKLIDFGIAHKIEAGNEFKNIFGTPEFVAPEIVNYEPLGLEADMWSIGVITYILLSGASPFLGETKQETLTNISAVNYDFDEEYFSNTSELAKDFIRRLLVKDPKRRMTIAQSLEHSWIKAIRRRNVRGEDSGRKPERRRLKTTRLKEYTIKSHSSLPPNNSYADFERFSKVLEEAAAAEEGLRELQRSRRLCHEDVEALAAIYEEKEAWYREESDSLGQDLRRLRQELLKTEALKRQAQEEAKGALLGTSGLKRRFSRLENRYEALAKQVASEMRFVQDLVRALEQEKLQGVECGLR"}, "[6]": {"target": "T6, 340 wild-type kinases (Homo sapiens, UniProt Q04912)", "T6 construct": "purchased Reaction Biology Europe", "T6 sequence (Q04912 25-1400)": "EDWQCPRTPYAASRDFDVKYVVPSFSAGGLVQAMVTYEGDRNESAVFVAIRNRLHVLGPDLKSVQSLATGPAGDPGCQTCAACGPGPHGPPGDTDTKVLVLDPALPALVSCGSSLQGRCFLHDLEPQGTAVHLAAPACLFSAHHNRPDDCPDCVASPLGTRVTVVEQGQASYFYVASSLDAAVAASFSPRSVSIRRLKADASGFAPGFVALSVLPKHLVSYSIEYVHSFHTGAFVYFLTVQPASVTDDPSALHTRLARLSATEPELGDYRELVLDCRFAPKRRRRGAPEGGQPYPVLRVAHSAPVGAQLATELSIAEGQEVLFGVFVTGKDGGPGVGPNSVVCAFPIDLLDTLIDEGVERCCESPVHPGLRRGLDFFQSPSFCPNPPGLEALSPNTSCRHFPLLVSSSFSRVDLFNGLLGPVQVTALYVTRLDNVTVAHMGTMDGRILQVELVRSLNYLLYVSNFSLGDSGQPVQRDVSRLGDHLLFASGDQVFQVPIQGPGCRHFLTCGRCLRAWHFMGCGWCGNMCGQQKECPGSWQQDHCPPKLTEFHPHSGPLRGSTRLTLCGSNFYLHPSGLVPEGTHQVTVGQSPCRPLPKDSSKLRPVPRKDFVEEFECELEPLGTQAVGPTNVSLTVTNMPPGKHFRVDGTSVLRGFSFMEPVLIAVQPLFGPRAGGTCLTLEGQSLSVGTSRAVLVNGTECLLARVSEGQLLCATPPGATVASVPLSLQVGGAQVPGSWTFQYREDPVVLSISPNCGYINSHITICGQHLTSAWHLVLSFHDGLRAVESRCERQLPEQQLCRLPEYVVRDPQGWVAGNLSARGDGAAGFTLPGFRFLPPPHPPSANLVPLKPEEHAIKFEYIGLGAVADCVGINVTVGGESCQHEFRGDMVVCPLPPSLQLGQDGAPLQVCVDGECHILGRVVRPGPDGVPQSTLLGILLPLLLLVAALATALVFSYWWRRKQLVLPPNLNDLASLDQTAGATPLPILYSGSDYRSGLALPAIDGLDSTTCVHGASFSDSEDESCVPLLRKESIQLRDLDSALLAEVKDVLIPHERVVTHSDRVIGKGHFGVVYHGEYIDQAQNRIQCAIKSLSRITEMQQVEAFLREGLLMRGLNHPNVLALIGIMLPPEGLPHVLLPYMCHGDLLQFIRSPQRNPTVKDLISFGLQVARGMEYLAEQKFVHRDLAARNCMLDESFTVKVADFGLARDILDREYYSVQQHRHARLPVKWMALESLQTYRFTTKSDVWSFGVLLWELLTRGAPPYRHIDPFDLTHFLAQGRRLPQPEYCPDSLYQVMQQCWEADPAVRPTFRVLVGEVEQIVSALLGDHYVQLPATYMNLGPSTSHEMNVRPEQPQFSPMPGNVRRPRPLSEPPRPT"}},
  "note": "Where two headings read alike, the source gives them in different places.",
  "data": [
    {"smiles": "CNC(=O)c1ccc2c(c1)C(=O)c1ccc(Nc3ccc(F)c(NC(=O)C4CC4)c3)cc1CC2", "note": "[Compound 2015]", "values": [
      {"measurement": "remaining activity at 0.2 µM", "setting": "[1]; 0.2 µM 2015, read-out: IKKbeta residual activity", "result": 108, "unit": "%"},
      {"measurement": "remaining activity at 1 µM", "setting": "[1]; 1 µM 2015, read-out: IKKbeta residual activity", "result": 99, "unit": "%"},
      {"measurement": "remaining activity at 0.2 µM", "setting": "[1]; IKKbeta, 0.2 µM, read-out: residual activity", "result": 108, "unit": "%"},
      {"measurement": "remaining activity at 1 µM", "setting": "[1]; IKKbeta, 1 µM, read-out: residual activity", "result": 99, "unit": "%"},
      {"measurement": "remaining activity at 0.2 µM", "setting": "[2]; 0.2 µM 2015, read-out: TEC residual activity", "result": 120, "unit": "%"},
      {"measurement": "remaining activity at 1 µM", "setting": "[2]; 1 µM 2015, read-out: TEC residual activity", "result": 108, "unit": "%"},
      {"measurement": "remaining activity at 0.2 µM", "setting": "[2]; TEC, 0.2 µM, read-out: residual activity", "result": 120, "unit": "%"},
      {"measurement": "remaining activity at 1 µM", "setting": "[2]; TEC, 1 µM, read-out: residual activity", "result": 108, "unit": "%"},
      {"measurement": "remaining activity at 0.2 µM", "setting": "[3]; 0.2 µM 2015, read-out: DAPK1 residual activity", "result": 128, "unit": "%"},
      {"measurement": "remaining activity at 1 µM", "setting": "[3]; 1 µM 2015, read-out: DAPK1 residual activity", "result": 135, "unit": "%"},
      {"measurement": "remaining activity at 0.2 µM", "setting": "[3]; DAPK1, 0.2 µM, read-out: residual activity", "result": 128, "unit": "%"},
      {"measurement": "remaining activity at 1 µM", "setting": "[3]; DAPK1, 1 µM, read-out: residual activity", "result": 135, "unit": "%"},
      {"measurement": "remaining activity at 0.2 µM", "setting": "[4]; 0.2 µM 2015, read-out: PRKD2 residual activity", "result": 66.4, "unit": "%"},
      {"measurement": "remaining activity at 1 µM", "setting": "[4]; 1 µM 2015, read-out: PRKD2 residual activity", "result": 91.3, "unit": "%"},
      {"measurement": "remaining activity at 0.2 µM", "setting": "[4]; PRKD2, 0.2 µM, read-out: residual activity", "result": 66.4, "unit": "%"},
      {"measurement": "remaining activity at 1 µM", "setting": "[4]; PRKD2, 1 µM, read-out: residual activity", "result": 91.3, "unit": "%"},
      {"measurement": "remaining activity at 0.2 µM", "setting": "[5]; 0.2 µM 2015, read-out: DAPK3 residual activity", "result": 110, "unit": "%"},
      {"measurement": "remaining activity at 1 µM", "setting": "[5]; 1 µM 2015, read-out: DAPK3 residual activity", "result": 115, "unit": "%"},
      {"measurement": "remaining activity at 0.2 µM", "setting": "[5]; DAPK3, 0.2 µM, read-out: residual activity", "result": 110, "unit": "%"},
      {"measurement": "remaining activity at 1 µM", "setting": "[5]; DAPK3, 1 µM, read-out: residual activity", "result": 115, "unit": "%"},
      {"measurement": "remaining activity at 0.2 µM", "setting": "[6]; 0.2 µM 2015, read-out: RON residual activity", "result": 97, "unit": "%"},
      {"measurement": "remaining activity at 1 µM", "setting": "[6]; 1 µM 2015, read-out: RON residual activity", "result": 101, "unit": "%"},
      {"measurement": "remaining activity at 0.2 µM", "setting": "[6]; RON, 0.2 µM, read-out: residual activity", "result": 97, "unit": "%"},
      {"measurement": "remaining activity at 1 µM", "setting": "[6]; RON, 1 µM, read-out: residual activity", "result": 101, "unit": "%"}
    ]}
  ]
}
